Read-outs that look alike come from different tables or passages of the source.
Legend:
[1] = system: NCI-H460; test: Proliferation assay (crystal violet staining), NCI-H460; assay type: cell-based, human; settings: read-out: Inhibition IC50 [M] (NCI-H460)
Experimental: (§1) Kultivierte humane Tumorzellen (MCF7, […] menschliche Mammakarzinomazellen, bezogen von ATCC HTB22; NCI-H460, menschliche nicht kleinzellige Lungenkarzinomazellen, ATCC HTB-177; DU 145, hormonunabhängige menschliche Prostatakarzinomazellen, ATCC HTB-81; HeLa-MaTu, humane Cervixkarzinomazellen, bezogen von EPO-GmbH, Berlin,) werden in einer Dichte von 5000 (MCF7, DU145) bzw. 3000 (NCI-H460, HeLa-MaTu) Zellen/Messpunkt in einer 96-Loch Multititerplatte in 200 µl des entsprechenden Wachstumsmediums ausplattiert. Nach 24 Stunden werden die Zellen einer Platte (Nullpunkt-Platte) mit Kristallviolett gefärbt (s.u.), während das Medium der anderen Platten durch frisches Kulturmedium (200 µl), dem die Testsubstanzen in verschiedenen Konzentrationen (0 µM, sowie im Bereich 0,01 - 30 µM; die finale Konzentration des Lösungsmittels Dimethylsulfoxid beträgt 0,5%) zugesetzt sind, ersetzt. Die Zellen werden für 4 Tage in Anwesenheit der Testsubstanzen inkubiert. Die Zellproliferation wird durch Färbung der Zellen mit Kristallviolett bestimmt: Die Zellen werden durch Zugabe von 20 µl/Messpunkt einer 11%igen Glutaraldehyd-Lösung 15 min bei Raumtemperatur fixiert. Nach dreimaligem Waschen der fixierten Zellen mit Wasser werden die Platten bei Raumtemperatur getrocknet. Die Zellen werden durch Zugabe von 100 µl/Messpunkt einer 0,1%igen Kristallviolett-Lösung (pH durch Zugabe von Essigsäure auf pH3 eingestellt) gefärbt. Nach dreimaligem Waschen der gefärbten Zellen mit Wasser werden die Platten bei Raumtemperatur getrocknet. Der Farbstoff wird durch Zugabe von 100 µl/Messpunkt einer 10%igen Essigsäure-Lösung gelöst. Die Extinktion wird photometrisch bei einer Wellenlänge von 595 nm bestimmt. Die prozentuale Änderung des Zellwachstums wird durch Normalisierung der Messwerte auf die Extinktionwerte der Nullpunktplatte (=0%) und die Extinktion der unbehandelten (0 µM) Zellen (=100%) berechnet. IC50-Werte werden nach einer 4-Parameterkurvenanpassung mit Hilfe eines Firmeneigenen Computerprogramms berechnet.

[2] = biological target: T1, PLK-1 (Homo sapiens, UniProt P53350); test: PLK-1 enzyme assay at 10 mM ATP (indirect HTRF assay); assay type: biochemical; settings: read-out: Inhibition PLK-1 IC50 [M] (10 mM ATP)
T1 construct: Fusionsprotein bestehend aus GST und Plk (Kinase Domäne 33-345; MW 36 kDa, conc 0,8 µg/µl); GST; made in house; host or cells: Hi5 insect cells
T1 sequence (P53350 33-345): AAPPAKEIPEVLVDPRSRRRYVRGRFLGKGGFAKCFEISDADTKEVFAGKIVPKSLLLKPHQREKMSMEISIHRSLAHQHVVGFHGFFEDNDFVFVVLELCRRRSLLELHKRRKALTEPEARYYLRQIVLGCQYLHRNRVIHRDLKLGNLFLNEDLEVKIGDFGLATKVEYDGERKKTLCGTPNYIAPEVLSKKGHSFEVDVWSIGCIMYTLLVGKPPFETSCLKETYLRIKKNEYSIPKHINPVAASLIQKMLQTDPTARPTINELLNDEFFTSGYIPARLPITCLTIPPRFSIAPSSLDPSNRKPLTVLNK
Experimental: PLK Enzym-Assay (10 mM ATP)
Für den Kinaseassay wird aus Insektenzellen (Hi5) exprimiertes, durch Glutathion-Sepharose-Affinitätschromatographie und anschließender Gel-filtration (Suerdex 75) gereinigtes rekombinantes Fusionsprotein bestehend aus GST und Plk (Kinase Domäne 33-345; MW 36 kDa, conc 0,8 µg/µl) verwendet. Aliqots hiervon werden in flüssigem Stickstoff weggefroren und bei -80°C gelagert und nach dem Auftauen nur einmal verwendet.
Bei dem verwendeten Assay handelt es sich um einen indirekten HTRF-Assay, bei dem folgende Materialien und Verfahrensweisen zum Einsatz kamen. Als Substrat für die Kinasereaktion wird das biotinylierte Peptid Btn-Ahx-KKLNRTLSFAEPG-Amid x TFA, von Biosyntan, Probennr.: 6178.1 (C-Terminus in Amidform) verwendet. Hierbei handelt es sich um eine artifizielle Sequenz, die von keinem bekannten Protein abgeleitet wurde.
50 nl der in 100% Dimethylsulfoxid (DMSO) gelösten Testverbindungen (Endkonzentrationen : 0 µM und Konzentrationen im Bereich von 0,001 - 20 µM) werden mit 2 µl Enzym Arbeitslösung (0,039 ng/µl Plk-1 im Arbeitspuffer [25 mM MgCl2; 1mM DTT; 50 mM Hepes pH 7,0; 0,01% NP40; 1x Complete; 0,05% BSA] für 30 min vorinkubiert. Anschließend wird die Kinase-Reaktion durch Zugabe von 3 µl Substratlösung [16,7 mM Adenosintriphosphate (ATP) und 1,4 µM Substratpeptid (Biotin-Ttds- KKLNRTLSFAEPG -NH2)] in Arbeitspuffer gestartet, und nach 30 min durch Zugabe einer Abstopp-Lösung (100 mM EDTA, 100 mM Hepes pH 7,5, 800 mM Potassiumfluoride, 0,12% BSA, 0,4 µM SA-XLent (0,05 µM, von CIS bio international, Marcoule, Frankreich), Eu^3+ Cryptate-conjugated Rabbit anti-Mouse IgG (1,5 nM; ein mit Europiumkryptat markierter Anti-Maus-IgG-Antikörper von CIS bio international, Marcoule, Frankreich), 1 nM Anti-phospho-Serine Kinase (ein phospho-spezifischer Antikörper von Upstate Biotechnology, Dundee, Schottland), gestoppt, und bei 4°C über Nacht inkubiert. Danach wird die Menge des phosphorylierten Substratpeptids durch Messung des Resonanzenergietransfers vom Europium-markierten Antikörperkomplex zum Streptavidine-XLent bestimmt. Zu diesem Zweck wird die Fluoreszenzemission bei 620 nm und 665 nm nach Anregung bei 350 nm in einem HTRF-Messgerät, z. B. Rubystar (BMG Labtechnologies, Offenburg, Deutschland) oder Viewlux (Perkin-Elmer), bestimmt. Das Verhältnis der Emissionen bei 665 nm und bei 620 nm wird als Maß für die Menge des phosphorylierten Substratpeptids verwendet. Die Daten werden normalisiert (Enzymreaktion ohne Inhibitor = 0 % Inhibition, alle anderen Assaykomponenten, aber kein Enzym = 100 % Inhibition), und IC50-Werte werden durch einen 4 Parameter-Fit mit einer hauseigenen Software berechnet.

[3] = system: DU145; test: Proliferation assay (crystal violet staining), DU145; assay type: cell-based, human; settings: read-out: Inhibition IC50 [M] (DU145)
Experimental: as §1

[4] = system: MCF-7; test: Proliferation assay (crystal violet staining), MCF-7; assay type: cell-based, human; settings: read-out: Inhibition IC50 [M] (MCF-7)
Experimental: as §1

[5] = Homo sapiens, 96 h, tumour cell proliferation, 4 days incubation
[6] = Homo sapiens, DU-145, 96 h, tumour cell proliferation, 4 days incubation
[7] = Homo sapiens, MCF7, 96 h, tumour cell proliferation, 4 days incubation
[8] = tumour cell proliferation, 4 days incubation

Row | IC50 ([1]; Homo sapiens, comparison with prior art (Tabelle 4)) | IC50 ([2]; comparison with prior art (Tabelle 3)) | IC50 ([3]; Homo sapiens, DU-145, comparison with prior art (Tabelle 4)) | IC50 ([4]; Homo sapiens, MCF7, comparison with prior art (Tabelle 4)) | IC50 [1, 8] | IC50 [3, 8] | IC50 [4, 8] | Compound | IC50 [1, 5] | IC50 [2] | IC50 [3, 6] | IC50 [4, 7]
1 |  |  |  |  |  |  |  | CCn1c(=O)c(=CNc2ccc3ccn(C4CC(C)(C)N(C)C(C)(C)C4)c3c2)s/c1=C(/C#N)C(=O)NCC#N [B162] | 3.7e-08 M | 3.7e-09 M | 3.5e-08 M | 1.4e-07 M
2 |  |  |  |  |  |  |  | CCn1c(=O)c(=CNc2ccc3ncn(C4CCN(C)CC4)c3c2)s/c1=C(/C#N)C(=O)NCC(F)(F)F [B147] | 2.4e-07 M | 3.1e-09 M | 1.3e-07 M | 2.4e-07 M
3 | 9e-07 M | 1.1e-07 M | 6e-07 M | 7e-07 M |  |  |  | CCn1c(=C(C#N)C(=O)NCC(F)(F)F)sc(=CNc2cccc(CCN3CCCC3)c2)c1=O [Beispiel 30 aus PCT/EP2005/013418, reference compound] |  |  |  | 
4 |  |  |  |  |  |  |  | CCn1c(=O)c(=CNc2ccc3c(c2)c(C2CCN(C)CC2)cn3C)s/c1=C(/C#N)C(=O)NCC(F)(F)F [B118, (Z,E/Z)-2-Cyan-2-[3-ethyl-5-[[[1-methyl-3-(1-methyl-4-piperidinyl)-1H-indol-5-yl]amino]methylen]-4-oxo-2-thiazolidinyliden]-N-(2,2,2-trifluorethyl)acetamid] | 1.7e-07 M | 2.1e-09 M | 8.5e-08 M | 2.9e-07 M
5 |  |  |  |  |  |  |  | CCn1c(=C(C#N)C(=O)NCC(F)(F)F)sc(=CNc2ccc3c(c2)N(C2CCN(C)CC2)CC3)c1=O [B01] | 1.9e-07 M | 5.7e-09 M | 1.3e-07 M | 4.4e-07 M
6 |  |  |  |  |  |  |  | CCn1c(=C(C#N)C(=O)NCC(F)(F)F)sc(=CNc2ccc3ccn(CCN4CCCC4)c3c2)c1=O [B132] | 4e-07 M | 3.3e-09 M | 2.2e-07 M | 4.5e-07 M
7 |  |  |  |  |  |  |  | CCn1c(=C(C#N)C(=O)NCC(F)(F)F)sc(=CNc2ccc3ccn(C4CCN(CC(N)=O)CC4)c3c2)c1=O [B71] | 2.1e-07 M | 8.2e-09 M | 1.2e-07 M | 1.4e-07 M
8 |  |  |  |  |  |  |  | CCn1c(=O)c(=CNc2ccc3c(C4CCN(C)CC4)cn(C)c3c2)s/c1=C(/C#N)C(=O)NCC#N [B130] | 3.7e-07 M | 1e-09 M | 8.4e-08 M | 1.4e-07 M
9 |  |  |  |  |  |  |  | CCn1c(=C(C#N)C(=O)NCC(F)(F)F)sc(=CNc2ccc3ccn(C4CCN(CC(=O)OC)CC4)c3c2)c1=O [B72] | 1.1e-07 M | 3.9e-09 M | 1.2e-07 M | 1.2e-07 M
10 |  |  |  |  |  |  |  | CCn1c(=O)c(=CNc2ccc3c(CN4CCCCC4)cn(C)c3c2)s/c1=C(/C#N)C(=O)NCC#N [B08] | 3.3e-07 M | 5.4e-09 M | 1.4e-07 M | 6.1e-07 M
11 |  |  |  |  |  |  |  | CCn1c(=C(C#N)C(=O)NCC#N)sc(=CNc2ccc3cn(C4CCN(C(C)C)CC4)nc3c2)c1=O [B102] | 6.2e-07 M | 2.2e-08 M | 2.8e-07 M | 1.9e-07 M
12 |  |  |  |  |  |  |  | CCn1c(=C(C#N)C(=O)NCC(F)(F)F)sc(=CNc2ccc3c(c2)c(CCN(C)C)cn3C)c1=O [B39] | 4.8e-07 M | 6.1e-09 M | 1.8e-07 M | 3.8e-07 M
13 |  |  |  |  | 9.6e-08 M | 5.1e-08 M | 1.4e-07 M | CCn1c(=O)c(=CNc2ccc3ccn(C4CCN(C)CC4)c3c2)s/c1=C(/C#N)C(=O)NCC(F)(F)F [B03, (Z,E/Z)-2-Cyan-2-[3-ethyl-5-[[[1-(1-methyl-4-piperidinyl)-1H-indol-6-yl]amino]methylen]-4-oxo-2-thiazolidinyliden]-N-(2,2,2-trifluorethyl)acetamid] |  | 1.6e-09 M |  | 
